Broadly, the IC50 is the midpoint of a concentration-inhibition curve.

The results in this text go back to ChEMBL document CHEMBL1629512, “Ipomotaosides A-D, resin glycosides from the aerial parts of Ipomoea batatas and their inhibitory activity against COX-1 and COX-2” (J Nat Prod, 2010).

Assay [1] concerns the target T1, Prostaglandin G/H synthase 1 (Ovis aries, UniProt P05979).
T1 sequence (P05979 whole entry): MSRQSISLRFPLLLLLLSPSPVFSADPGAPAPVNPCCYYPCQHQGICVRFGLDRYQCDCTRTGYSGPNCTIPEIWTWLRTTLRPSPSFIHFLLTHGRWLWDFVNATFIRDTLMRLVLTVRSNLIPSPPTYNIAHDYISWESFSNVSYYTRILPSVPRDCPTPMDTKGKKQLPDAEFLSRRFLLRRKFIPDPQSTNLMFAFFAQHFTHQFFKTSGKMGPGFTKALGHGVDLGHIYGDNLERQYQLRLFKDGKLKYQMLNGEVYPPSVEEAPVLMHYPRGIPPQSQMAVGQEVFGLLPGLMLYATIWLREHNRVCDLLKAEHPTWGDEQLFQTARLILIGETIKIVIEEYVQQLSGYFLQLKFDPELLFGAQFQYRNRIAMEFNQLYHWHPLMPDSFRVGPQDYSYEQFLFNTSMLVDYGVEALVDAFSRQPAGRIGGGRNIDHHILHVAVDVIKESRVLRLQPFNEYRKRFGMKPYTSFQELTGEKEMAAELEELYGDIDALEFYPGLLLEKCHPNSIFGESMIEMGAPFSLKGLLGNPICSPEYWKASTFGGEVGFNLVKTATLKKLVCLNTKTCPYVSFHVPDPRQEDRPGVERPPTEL
The experiment in a line: Inhibition of sheep COX1-mediated PGE2 production after 2 mins by liquid scintillation counting.

The target in assay [2] is T2, Prostaglandin G/H synthase 2 (Ovis aries, UniProt P79208).
T2 sequence (P79208 whole entry): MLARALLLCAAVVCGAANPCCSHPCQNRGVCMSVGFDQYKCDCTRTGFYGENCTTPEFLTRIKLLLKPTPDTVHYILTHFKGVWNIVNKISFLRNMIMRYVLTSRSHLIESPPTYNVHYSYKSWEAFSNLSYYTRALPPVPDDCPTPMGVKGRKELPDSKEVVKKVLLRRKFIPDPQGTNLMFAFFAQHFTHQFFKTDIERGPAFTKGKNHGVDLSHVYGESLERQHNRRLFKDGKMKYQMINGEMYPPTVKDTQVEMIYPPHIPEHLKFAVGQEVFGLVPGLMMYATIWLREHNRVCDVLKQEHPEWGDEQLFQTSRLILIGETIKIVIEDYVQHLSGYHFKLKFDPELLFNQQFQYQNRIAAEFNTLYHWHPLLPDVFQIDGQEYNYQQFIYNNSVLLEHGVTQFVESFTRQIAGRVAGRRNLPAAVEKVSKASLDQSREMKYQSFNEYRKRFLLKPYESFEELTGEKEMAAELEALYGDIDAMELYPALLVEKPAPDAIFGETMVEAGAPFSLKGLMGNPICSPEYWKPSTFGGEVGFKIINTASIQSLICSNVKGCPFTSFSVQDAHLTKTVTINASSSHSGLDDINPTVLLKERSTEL
The experiment in a line: Inhibition of sheep COX2-mediated PGE2 production after 2 mins by liquid scintillation counting.

As to `CCCCCCCCCCCC(=O)O[C@@H]1[C@@H](O)[C@@H](OC(=O)/C=C/c2ccccc2)[C@H](O[C@@H]2[C@@H](OC(=O)CCCCCCCCC)[C@@H](O)[C@H](O[C@@H]3[C@@H](O)[C@H]4OC(=O)CCCCCCCCC[C@H](CCCCC)O[C@@H]5O[C@H](C)[C@H](O)[C@H](O)[C@H]5O[C@@H]4O[C@H]3C)O[C@H]2C)O[C@H]1C` [IPOMOTAOSIDE A], the IC50 was determined as 9.3 µM in assay [1] (read-out: IC50) and 14.5 µM in assay [2] (read-out: IC50).

As to `CCCCCCCCCCCC(=O)O[C@@H]1[C@@H](O)[C@@H](OC(=O)/C=C/c2ccccc2)[C@H](O[C@@H]2[C@@H](O)[C@@H](OC(=O)CCCCCCCCCCC)[C@H](O[C@@H]3[C@@H](O)[C@H]4OC(=O)CCCCCCCCC[C@H](CCCCC)O[C@@H]5O[C@H](C)[C@H](O)[C@H](O)[C@H]5O[C@@H]4O[C@H]3C)O[C@H]2C)O[C@H]1C` [IPOMOTAOSIDE B], the IC50 in assay [1] (read-out: IC50) is 132 µM; in assay [2] (read-out: IC50), 147 µM.

Regarding `CCCCCCCCCCCC(=O)O[C@@H]1[C@@H](O)[C@@H](OC(=O)/C=C/c2ccccc2)[C@H](O[C@@H]2[C@@H](O)[C@@H](OC(=O)CCCCCCCCC)[C@H](O[C@@H]3[C@H]4OC(=O)CCCCCCCCC[C@H](CCCCC)O[C@@H]5O[C@H](C)[C@H](O)[C@H](O)[C@H]5O[C@H](O[C@H]3C)[C@@H]4O)O[C@H]2C)O[C@H]1C` [IPOMOTAOSIDE C], the IC50 result in assay [1] and in assay [2] was “Not Active” in each case.

Turning to `CCCCCCCCCCCC(=O)O[C@@H]1[C@@H](O)[C@@H](OC(=O)/C=C/c2ccccc2)[C@H](O[C@@H]2[C@@H](OC(=O)CCCCCCCCC)[C@@H](O)[C@H](O[C@@H]3[C@H]4OC(=O)CCCCCCCCC[C@H](CCCCC)O[C@@H]5O[C@H](C)[C@H](O)[C@H](O)[C@H]5O[C@H](O[C@H]3C)[C@@H]4O)O[C@H]2C)O[C@H]1C` [IPOMOTAOSIDE D], the IC50 entry in assay [1] and in assay [2] was “Not Active” throughout.
